Data on 1 compound can be found in publication PMC9101838, “Novel CFTR Activator Cact-3 Ameliorates Ocular Surface Dysfunctions in Scopolamine-Induced Dry Eye Mice” (International Journal of Molecular Sciences, 2022).

In this test the target is T1, Cystic fibrosis transmembrane conductance regulator (CFTR) (Homo sapiens, UniProt P13569).
T1 construct: human WT-CFTR
Nature of the test: apical membrane current in FRT cells expressing human WT-CFTR; whole-cell patch clamp in CHO-K1 cells; no change in cAMP. The test is classed as cell-based. On the technique in general: In patch-clamp work, channel activity is measured electrically.

pEC50: −log10 of the molar value.

The pEC50 is −log10 of the EC50, conventionally taken in molar units.

T1 sequence (P13569 whole entry): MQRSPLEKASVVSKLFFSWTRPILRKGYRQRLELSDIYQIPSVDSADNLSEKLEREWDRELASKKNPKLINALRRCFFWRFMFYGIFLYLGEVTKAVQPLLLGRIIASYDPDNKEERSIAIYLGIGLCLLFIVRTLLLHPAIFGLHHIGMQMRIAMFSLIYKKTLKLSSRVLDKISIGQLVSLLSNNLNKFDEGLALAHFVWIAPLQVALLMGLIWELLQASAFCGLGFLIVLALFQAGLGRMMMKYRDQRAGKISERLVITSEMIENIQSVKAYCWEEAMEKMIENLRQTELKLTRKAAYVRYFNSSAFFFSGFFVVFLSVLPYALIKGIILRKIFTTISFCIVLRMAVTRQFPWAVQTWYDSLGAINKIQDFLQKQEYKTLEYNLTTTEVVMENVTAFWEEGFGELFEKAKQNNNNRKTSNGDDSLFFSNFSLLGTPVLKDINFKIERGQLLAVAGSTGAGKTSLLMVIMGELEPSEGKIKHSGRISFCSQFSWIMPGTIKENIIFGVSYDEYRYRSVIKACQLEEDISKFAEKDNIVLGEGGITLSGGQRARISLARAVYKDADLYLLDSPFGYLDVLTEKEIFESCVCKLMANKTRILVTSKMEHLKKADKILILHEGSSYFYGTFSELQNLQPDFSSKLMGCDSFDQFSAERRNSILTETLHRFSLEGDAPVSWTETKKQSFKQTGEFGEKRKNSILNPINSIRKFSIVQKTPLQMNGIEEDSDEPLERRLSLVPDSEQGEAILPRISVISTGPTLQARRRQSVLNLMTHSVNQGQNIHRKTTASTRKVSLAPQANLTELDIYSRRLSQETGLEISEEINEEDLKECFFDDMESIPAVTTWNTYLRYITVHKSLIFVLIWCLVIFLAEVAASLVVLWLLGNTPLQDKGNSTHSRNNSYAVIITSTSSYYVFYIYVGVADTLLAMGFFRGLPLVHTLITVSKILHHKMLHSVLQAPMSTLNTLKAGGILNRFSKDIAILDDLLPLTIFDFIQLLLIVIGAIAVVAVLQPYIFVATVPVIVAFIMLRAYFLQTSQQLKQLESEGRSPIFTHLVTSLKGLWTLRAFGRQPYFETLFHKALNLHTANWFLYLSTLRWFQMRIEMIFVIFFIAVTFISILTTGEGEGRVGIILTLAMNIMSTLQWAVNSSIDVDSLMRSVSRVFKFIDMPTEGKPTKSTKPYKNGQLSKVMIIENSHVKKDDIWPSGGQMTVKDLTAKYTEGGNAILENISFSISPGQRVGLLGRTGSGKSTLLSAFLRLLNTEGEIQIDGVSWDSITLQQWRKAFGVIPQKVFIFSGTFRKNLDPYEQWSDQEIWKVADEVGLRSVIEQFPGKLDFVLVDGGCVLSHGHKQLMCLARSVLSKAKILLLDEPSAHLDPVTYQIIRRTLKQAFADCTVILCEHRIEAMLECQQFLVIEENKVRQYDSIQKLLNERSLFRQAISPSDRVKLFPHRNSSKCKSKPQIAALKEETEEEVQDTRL

For the compound `CCOc1ccc(NC(=O)c2cc3nccc(-c4ccc(OC)c(OC)c4)n3n2)cc1` [Cact-3, 7-(3,4-dimethoxyphenyl)-N-(4-ethoxyphenyl)pyrazolo [1,5-α]pyrimidine-2-carboxamide], the negative logarithm of the EC50 (pEC50) is 6.59.
